Consider 9 compounds from patent US20260022142A1, “MACROCYCLIC IMMUNOMODULATORS” (Bristol-Myers Squibb Company, priority 2022, published 2026).

Structures are written as SMILES. Numbered stars: 1 amine (or outer) side, 2 acyl side, 3 side chain; on linkers, the order of the positions; unused ones are H or OH. Bridge positions count the residues as written; N and C are the ends. Square brackets hold non-standard residues; d marks the D form. Peptide text beside a SMILES is read from it. * marks the point of attachment. ξ: configuration not given here. Phe(4-COOH) = N[C@@H](Cc1ccc(C(=O)O)cc1)C(=O)O; Bip = N[C@@H](Cc1ccc(-c2ccccc2)cc1)C(=O)O; Phe(3-Me) = Cc1cccc(C[C@H](N)C(=O)O)c1; X5 = CC(C)(CCN)[C@H](N[*:1])C(=O)[*:2]; Val(3-OH) = CC(C)(O)[C@H](N)C(=O)O; 4Pal = N[C@@H](Cc1ccncc1)C(=O)O; Cha = N[C@@H](CC1CCCCC1)C(=O)O; Cit = NC(=O)NCCC[C@H](N)C(=O)O; Thr(3ξ) = CC(O)[C@H](N)C(=O)O; 12Ado = NCCCCCCCCCCCC(=O)O; Carboxymethyl = O=C(O)C*; Orn = NCCC[C@H](N)C(=O)O; Pra = C#CC[C@H](N)C(=O)O; Aun = NCCCCCCCCCCC(=O)O; Dab = NCC[C@H](N)C(=O)O; Abu = CC[C@H](N)C(=O)O; Dap = NC[C@H](N)C(=O)O; AEEA = NCCOCCOCC(=O)O

T1 sequence (Q15116 25-288): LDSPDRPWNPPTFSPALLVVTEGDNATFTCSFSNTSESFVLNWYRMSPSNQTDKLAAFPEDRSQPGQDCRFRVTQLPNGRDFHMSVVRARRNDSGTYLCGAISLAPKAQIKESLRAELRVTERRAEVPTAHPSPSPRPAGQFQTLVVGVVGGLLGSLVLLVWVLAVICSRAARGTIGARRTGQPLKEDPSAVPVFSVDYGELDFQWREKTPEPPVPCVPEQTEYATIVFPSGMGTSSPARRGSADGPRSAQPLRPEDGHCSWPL

This assay addresses T1, PD-1/PD-L1 interaction (PE-labeled human PD-L1-Ig binding to Jurkat cell line over-expressing human PD-1) (Homo sapiens, UniProt Q15116).
T1 construct: expressed in transfected cells; host or cells: Jurkat
Nature of the assay: Jurkat-PD-1 Cell Binding High-Content Screening Assay (CBA). Particulars: Jurkat cell line over-expressing human PD-1; PE-labeled PD-L1-Ig 20 nM final; read-out: Jurkat hPD1-PDL1 IC50. In kind it is cell-based. The procedure, abridged:
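First, compound is added to PD-1-expressing Jurkat cells in serum-containing DMEM and left 2 h at 37° C. Next, PE-conjugated PD-L1-Ig is introduced at 20 nM final concentration for 1 hour. Finally, cells are fixed in 4% paraformaldehyde with Hoechst 33342, washed and imaged.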
On to `Cc1cccc(C[C@@H]2NC(=O)[C@H](CC(=O)O)NC(=O)[C@H](Cc3ccc(OCC(=O)O)cc3)NC(=O)[C@H](CCN)NC(=O)CSC[C@@H](C(=O)N[C@H](C(=O)NCCCCCCCCCCC(=O)O)C(C)(C)CCN)NC(=O)[C@H](CO)NC(=O)[C@H](C(C)(C)O)NC(=O)[C@H](CC3CCCCC3)NC(=O)[C@H](CCN)NC(=O)[C@@H](CC(C)C)NC(=O)[C@H](CCCN)NC(=O)[C@H](Cc3ccc(OCC(=O)O)cc3)NC(=O)[C@H](Cc3ccc(-c4ccccc4)cc3)NC(=O)[C@H](Cc3ccc(OCC(=O)O)cc3)NC2=O)c1` [Compound 2261] ({CH2CO}-[Dab]Y(Carboxymethyl)D[Phe(3-Me)]Y(Carboxymethyl)[Bip]Y(Carboxymethyl)[Orn][dL][Dab][Cha][Val(3-OH)]SC[X5][Aun]-OH; thioether N-14), for which the IC50 (as a rule, the concentration at which inhibition is half-maximal) stood at 207 nM.
Next, `CC[C@@H]1NC(=O)CSC[C@@H](C(=O)N[C@@H](CCN)C(=O)NCCOCCOCC(=O)NCCCCCCCCCCC(=O)O)NC(=O)[C@H](CO)NC(=O)[C@H](C(C)(C)O)NC(=O)[C@H](CC2CCCCC2)NC(=O)[C@H](CCN)NC(=O)[C@@H](CC(C)C)NC(=O)[C@H](CCCN)NC(=O)[C@H](Cc2ccc(OCC(=O)O)cc2)NC(=O)[C@H](Cc2ccc(-c3ccccc3)cc2)NC(=O)[C@H](Cc2ccc(OCC(=O)O)cc2)NC(=O)[C@H](Cc2cccc(C)c2)NC(=O)[C@H](CC(=O)O)NC(=O)[C@H](Cc2ccc(OCC(=O)O)cc2)NC1=O` [Compound 2879] ({CH2CO}-[Abu]Y(Carboxymethyl)D[Phe(3-Me)]Y(Carboxymethyl)[Bip]Y(Carboxymethyl)[Orn][dL][Dab][Cha][Val(3-OH)]SC[Dab][AEEA][Aun]-OH; thioether N-14): 2.7 nM.
For the compound `Cc1cccc(C[C@@H]2NC(=O)[C@H](CC(=O)O)NC(=O)[C@H](Cc3ccc(OCC(=O)O)cc3)NC(=O)[C@H](CN)NC(=O)CSC[C@@H](C(=O)N[C@@H](CCCN)C(=O)N[C@@H](CO)C(=O)NCCCCCCCCCCCC(=O)O)NC(=O)[C@H](CCCN)NC(=O)[C@H](C(C)C)NC(=O)[C@H](CC3CCCCC3)NC(=O)[C@H](CCN)NC(=O)[C@@H](CC(C)C)NC(=O)[C@H](CCCN)NC(=O)[C@H](Cc3ccc(O)cc3)NC(=O)[C@H](Cc3ccc(-c4ccccc4)cc3)NC(=O)[C@H](C(C)C)NC2=O)c1` [Compound 3589] ({CH2CO}-[Dap]Y(Carboxymethyl)D[Phe(3-Me)]V[Bip]Y[Orn][dL][Dab][Cha]V[Orn]C[Orn]S[12Ado]-OH; thioether N-14), the IC50 worked out at 27.8 nM.
Then `CC(C)C[C@H]1NC(=O)[C@H](CCCN)NC(=O)[C@H](C(C)C)NC(=O)[C@H](Cc2ccc(-c3ccccc3)cc2)NC(=O)[C@H](C(C)C)NC(=O)[C@H](Cc2c[nH]c3ccccc23)NC(=O)[C@H](CC(=O)O)NC(=O)[C@H](Cc2ccc(OCC(=O)O)cc2)NC(=O)[C@H](Cc2ccc(OCC(=O)O)cc2)NC(=O)CSC[C@@H](C(=O)N[C@@H](CCCCN)C(=O)NCCOCCOCC(=O)NCCCCCCCCCCC(=O)O)NC(=O)[C@H](CN)NC(=O)[C@H](C(C)C)NC(=O)[C@H](CC2CCCCC2)NC(=O)[C@H](CCN)NC1=O` [Compound 2530] ({CH2CO}-Y(Carboxymethyl)Y(Carboxymethyl)DWV[Bip]V[Orn][dL][Dab][Cha]V[Dap]CK[AEEA][Aun]-OH; thioether N-14), with 10.9 nM; and `Cc1cccc(C[C@@H]2NC(=O)[C@H](CC(=O)O)NC(=O)[C@H](Cc3ccc(OCC(=O)O)cc3)NC(=O)[C@H](CN)NC(=O)CSC[C@@H](C(=O)N[C@@H](CCCN)C(=O)N[C@@H](CO)C(=O)NCCCCCCCCCCCC(=O)O)NC(=O)[C@H](C(C)O)NC(=O)[C@H](C(C)C)NC(=O)[C@H](CC3CCCCC3)NC(=O)[C@H](CCN)NC(=O)[C@@H](CC(C)C)NC(=O)[C@H](CCCN)NC(=O)[C@H](CCCNC(N)=O)NC(=O)[C@H](Cc3ccc(-c4ccccc4)cc3)NC(=O)[C@H](Cc3ccc(O)cc3)NC2=O)c1` (stereo partly drawn) [Compound 3586] ({CH2CO}-[Dap]Y(Carboxymethyl)D[Phe(3-Me)]Y[Bip][Cit][Orn][dL][Dab][Cha]V[Thr(3ξ)]C[Orn]S[12Ado]-OH; thioether N-14), with 30.1 nM; and `C#CC[C@H](NC(=O)COCCOCCNC(=O)[C@H](CCN)NC(=O)[C@@H]1CSCC(=O)N[C@@H](Cc2ccncc2)C(=O)N[C@@H](Cc2ccc(OCC(=O)O)cc2)C(=O)N[C@@H](CC(=O)O)C(=O)N[C@@H](Cc2c[nH]c3ccccc23)C(=O)N[C@@H](C(C)C)C(=O)N[C@@H](Cc2ccc(-c3ccccc3)cc2)C(=O)N[C@@H]([C@@H](C)CC)C(=O)N[C@@H](CCCN)C(=O)N[C@H](CC(C)C)C(=O)N[C@@H](CCN)C(=O)N[C@@H](CC(C)C)C(=O)N[C@@H](C(C)C)C(=O)N[C@@H]([C@@H](C)O)C(=O)N1)C(=O)N[C@@H](Cc1c[nH]cn1)C(=O)NCCCCCCCCCCC(=O)O` [Compound 1198] ({CH2CO}-[4Pal]Y(Carboxymethyl)DWV[Bip]I[Orn][dL][Dab]LVTC[Dab][AEEA][Pra]H[Aun]-OH; thioether N-14), with 15.1 nM.
As to `CC(C)C[C@H]1NC(=O)[C@H](CCCN)NC(=O)[C@H](Cc2ccc(O)cc2)NC(=O)[C@H](Cc2ccc(-c3ccccc3)cc2)NC(=O)[C@H](Cc2ccc(O)cc2)NC(=O)[C@H](Cc2c[nH]c3ccccc23)NC(=O)[C@H](CC(=O)O)NC(=O)[C@H](Cc2ccc(C(=O)O)cc2)NC(=O)[C@H](Cc2ccc(OCC(=O)O)cc2)NC(=O)CSC[C@@H](C(=O)N[C@@H](CCN)C(=O)NCCOCCOCC(=O)NCCCCCCCCCCC(=O)O)NC(=O)[C@H](CCCCN)NC(=O)[C@H](Cc2ccc(O)cc2)NC(=O)[C@H](CC2CCCCC2)NC(=O)[C@H](CCN)NC1=O` [Compound 2501] ({CH2CO}-Y(Carboxymethyl)[Phe(4-COOH)]DWY[Bip]Y[Orn][dL][Dab][Cha]YKC[Dab][AEEA][Aun]-OH; thioether N-14), the IC50 was determined as 28.4 nM.
Next, `CC(C)C[C@H]1NC(=O)[C@H](CCCN)NC(=O)[C@H](C(C)C)NC(=O)[C@H](Cc2ccc(-c3ccccc3)cc2)NC(=O)[C@H](C(C)C)NC(=O)[C@H](Cc2c[nH]c3ccccc23)NC(=O)[C@H](CC(=O)O)NC(=O)[C@H](Cc2ccc(OCC(=O)O)cc2)NC(=O)[C@H](Cc2c[nH]cn2)NC(=O)CSC[C@@H](C(=O)N[C@H](C)C(=O)N[C@@H](CCC(=O)O)C(=O)NCCCCCCCCCCC(=O)O)NC(=O)[C@H]([C@@H](C)O)NC(=O)[C@H](C(C)C)NC(=O)[C@H](CC2CCCCC2)NC(=O)[C@H](CCN)NC1=O` [Compound 2785] ({CH2CO}-HY(Carboxymethyl)DWV[Bip]V[Orn][dL][Dab][Cha]VTC[dA]E[Aun]-OH; thioether N-14): 16.1 nM.
With `Cc1cccc(C[C@@H]2NC(=O)[C@H](CC(=O)O)NC(=O)[C@H](Cc3ccc(OCC(=O)O)cc3)NC(=O)[C@H](CN)NC(=O)CSC[C@@H](C(=O)NCCCCCCCCCCC(=O)O)NC(=O)[C@H](CCCN)NC(=O)[C@H](C(C)C)NC(=O)[C@H](CC3CCCCC3)NC(=O)[C@H](CCN)NC(=O)[C@@H](CC(C)C)NC(=O)[C@H](CCCN)NC(=O)[C@H](C(C)C)NC(=O)[C@H](Cc3ccc(-c4ccccc4)cc3)NC(=O)[C@H](C(C)C)NC2=O)c1` [Compound 2605] ({CH2CO}-[Dap]Y(Carboxymethyl)D[Phe(3-Me)]V[Bip]V[Orn][dL][Dab][Cha]V[Orn]C[Aun]-OH; thioether N-14), the IC50 was found to be 5.6 nM.
